Measured values as given in patent publication US20230312587A1, “PTERIDINONE COMPOUNDS AND USES THEREOF” (Vertex Pharmaceutical Incorporated, priority 2018, published 2023).

System: β-catenin-TCF-mediated reporter transcription activity in Colo 205 cells
Test: Colo 205 reporter assay (TCF/LEF luciferase)
Format: cell-based
Settings: Colo 205 TCF/LEF luciferase reporter, five hours after addition of compound; read-out: TCF reporter Colo205 IC50
Summary of the method: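 Luciferase signal from a TCF/LEF-driven reporter, stably integrated in Colo 205 colon cancer cells, was measured 5 h after compound addition.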

IC50	SMILES
1000 to 5000 nM	COCC1(C)C(=O)Nc2c(C)nc(NC3CN(C(=O)c4cc(F)c(F)c(F)c4)C3)nc2N1C (centres unmarked) [Compound 722, 7-(methoxymethyl)-4,7,8-trimethyl-2-((1-(3,4,5-trifluorobenzoyl)azetidin-3-yl)amino)-7,8-dihydropteridin-6(5H)-one]
300 to 1000 nM	CC[C@H]1C(=O)N(C)c2cnc(NCc3cnn(Cc4ccc(F)cc4)c3)nc2N1C(C)C [Compound 52, (7S)-7-ethyl-2-(((1-(4-fluorobenzyl)-1H-pyrazol-4-yl)methyl)amino)-8-isopropyl-5-methyl-7,8-dihydropteridin-6(5H)-one]

Same assay, conditions: Homo sapiens, COLO 205, 5 h, Colo 205 TCF/LEF luciferase reporter, five hours after addition of compound; read-out: TCF reporter Colo205 IC50

SMILES	IC50
COc1cc(F)ccc1O[C@H]1C[C@H](Nc2nc(C)c3c(n2)N(C)[C@@H](C)C(=O)N3)C1 [Compound 344, (7S)-2-((trans-3-(4-fluoro-2-methoxyphenoxy)cyclobutyl)amino)-4,7,8-trimethyl-7,8-dihydropteridin-6(5H)-one]	300 to 1000 nM
Cc1nc(N[C@H]2C[C@H](Oc3ccc(F)c(F)c3)C2)nc2c1NC(=O)[C@H](C)N2C [Compound 248, (7S)-2-((trans 3-(3,4-difluorophenoxy)cyclobutyl)amino)-4,7,8-trimethyl-7,8-dihydropteridin-6(5H)-one]	< 300 nM
Cc1nc(NCc2cnn(CC3CCC(F)(F)CC3)c2)nc2c1NC(=O)[C@H](C)N2C [Compound 58, (7S)-2-(((1-((4,4-difluorocyclohexyl)methyl)-1H-pyrazol-4-yl)methyl)amino)-4,7,8-trimethyl-7,8-dihydropteridin-6(5H)-one]	< 300 nM
Cc1nc(NCc2cnn(CCC3CCCC3)c2)nc2c1NC(=O)[C@H](C)N2C [Compound 133, (7S)-2-(((1-(2-cyclopentylethyl)-1H-pyrazol-4-yl)methyl)amino)-4,7,8-trimethyl-7,8-dihydropteridin-6(5H)-one]	< 300 nM
COc1ccc(O[C@H]2C[C@H](Nc3nc(C)c4c(n3)N(C)[C@@H](C)C(=O)N4C)C2)cc1 [Compound 343, (7S)-2-((trans-3-(4-methoxyphenoxy)cyclobutyl)amino)-4,5,7,8-tetramethyl-7,8-dihydropteridin-6(5H)-one]	≥ 5000 nM
Cc1nc(N[C@H]2C[C@@H](COc3ccc(F)nc3)C2)nc2c1NC(=O)[C@H](C)N2C [Compound 270, (7S)-2-((cis-3-(((6-fluoropyridin-3-yl)oxy)methyl)cyclobutyl)amino)-4,7,8-trimethyl-7,8-dihydropteridin-6(5H)-one]	300 to 1000 nM
COc1cc(Cn2cc(CNc3nc(C)c4c(n3)N(C)[C@@H](C)C(=O)N4)cn2)ccc1F [Compound 75, (7S)-2-(((1-(4-fluoro-3-methoxybenzyl)-1H-pyrazol-4-yl)methyl)amino)-4,7,8-trimethyl-7,8-dihydropteridin-6(5H)-one]	< 300 nM
Cc1nc(N[C@H]2C[C@H](Sc3ccc(F)cc3)C2)nc2c1NC(=O)[C@H](C)N2C [Compound 303, (7S)-2-((trans-3-((4-fluorophenyl)thio)cyclobutyl)amino)-4,7,8-trimethyl-7,8-dihydropteridin-6(5H)-one]	300 to 1000 nM
Cc1nc(NCc2cnn(CC(C)(C)c3ccc(F)cc3)c2)nc2c1NC(=O)[C@H](C)N2C [Compound 92, (7S)-2-(((1-(2-(4-fluorophenyl)-2-methylpropyl)-1H-pyrazol-4-yl)methyl)amino)-4,7,8-trimethyl-7,8-dihydropteridin-6(5H)-one]	< 300 nM
C[C@H]1C(=O)Nc2cnc(NCc3cnn(CCOc4ccc(F)cc4)c3)nc2N1C [Compound 109, (7S)-2-(((1-(2-(4-fluorophenoxy)ethyl)-1H-pyrazol-4-yl)methyl)amino)-7,8-dimethyl-7,8-dihydropteridin-6(5H)-one]	1000 to 5000 nM
[2H]C([2H])([2H])C([2H])([2H])N1C(=O)[C@H](C)N(C)c2nc(N[C@H]3C[C@H](Oc4cc(F)c(F)c(F)c4)C3)nc(C)c21 [Compound 328, (7S)-5-(ethyl-d5)-4,7,8-trimethyl-2-((trans-3-(3,4,5-trifluorophenoxy)-cyclobutyl)amino)-7,8-dihydropteridin-6(5H)-one]	< 300 nM
Cc1nc(N[C@H]2C[C@H](Oc3cncc(C(F)(F)F)c3)C2)nc2c1NC(=O)[C@H](C)N2C [Compound 315, (7S)-4,7,8-trimethyl-2-((trans-3-((5-(trifluoromethyl)pyridin-3-yl)oxy)cyclobutyl)amino)-7,8-dihydropteridin-6(5H)-one]	< 300 nM
C[C@H]1C(=O)Nc2cnc(N[C@H]3C[C@@H](COCc4ccc(F)cc4)C3)nc2N1C [Compound 288, (7S)-2-((cis-3-(((4-fluorobenzyl)oxy)methyl)cyclobutyl)amino)-7,8-dimethyl-7,8-dihydropteridin-6(5H)-one]	300 to 1000 nM
C#Cc1cccc(OC[C@H]2C[C@@H](Nc3nc(C)c4c(n3)N(C)[C@@H](C)C(=O)N4)C2)c1 [Compound 283, (7S)-2-((cis-3-((3-ethynylphenoxy)methyl)cyclobutyl)amino)-4,7,8-trimethyl-7,8-dihydropteridin-6(5H)-one]	< 300 nM

Now from value to compound:

IC50	SMILES
< 300 nM	CO[C@H](C)[C@H]1C(=O)Nc2c(C)nc(N[C@H]3C[C@@H](Cn4ccc(C(F)(F)F)n4)C3)nc2N1C [Compound 691, (S)-7-((R)-1-methoxyethyl)-4,8-dimethyl-2-((cis-3-((3-(trifluoromethyl)-1H-pyrazol-1-yl)methyl)cyclobutyl)amino)-7,8-dihydropteridin-6(5H)-one]
< 300 nM	Cc1nc(NCc2cnn(CC3CC(F)(F)C3)c2)nc2c1NC(=O)[C@H](C(C)C)N2C [Compound 727, (S)-2-(((1-((3,3-difluorocyclobutyl)methyl)-1H-pyrazol-4-yl)methyl)amino)-7-isopropyl-4,8-dimethyl-7,8-dihydropteridin-6(5H)-one]
< 300 nM	Cc1nc(N[C@H]2C[C@@H](Cn3nc(Cl)c(C#N)n3)C2)nc2c1NC(=O)[C@H](C(C)C)N2C [Compound 695, 5-chloro-2-((cis-3-(((S)-7-isopropyl-4,8-dimethyl-6-oxo-5,6,7,8-tetrahydropteridin-2-yl)amino)cyclobutyl)methyl)-2H-1,2,3-triazole-4-carbonitrile]
≥ 5000 nM	Cc1nc(NCc2ncn(Cc3ccc(OC(F)(F)F)cc3)n2)nc2c1NC(=O)[C@H](C(C)C)N2C [Compound 489, (S)-7-isopropyl-4,8-dimethyl-2-(((1-(4-(trifluoromethoxy)benzyl)-1H-1,2,4-triazol-3-yl)methyl)amino)-7,8-dihydropteridin-6(5H)-one]
< 300 nM	Cc1nc(N[C@H]2C[C@@H](Nc3ccc(OC(F)(F)F)cn3)C2)nc2c1NC(=O)[C@H](C(C)C)N2C [Compound 576, (S)-7-isopropyl-4,8-dimethyl-2-((cis-3-((5-(trifluoromethoxy)pyridin-2-yl)amino)cyclobutyl)amino)-7,8-dihydropteridin-6(5H)-one]
< 300 nM	Cc1nc(NCc2cnn(C(C)c3ccc(F)cc3)c2)nc2c1NC(=O)[C@H](C)N2C (stereo partly drawn) [Compound 382, (7S)-2-(((1-(1-(4-fluorophenyl)ethyl)-1H-pyrazol-4-yl)methyl)amino)-4,7,8-trimethyl-7,8-dihydropteridin-6(5H)-one]
< 300 nM	Cc1nc(N[C@H]2C[C@@H](Nc3ccc(C(F)(F)F)cn3)C2)nc2c1NC(=O)[C@H](C(C)C)N2C [Compound 534, (S)-7-isopropyl-4,8-dimethyl-2-((cis-3-((5-(trifluoromethyl)pyridin-2-yl)amino)cyclobutyl)amino)-7,8-dihydropteridin-6(5H)-one]
≥ 5000 nM	CO[C@@H](C(=O)N1CC(Nc2nc(C)c3c(n2)N(C)[C@@H](C(C)C)C(=O)N3)C1)c1ccccc1 [Compound 634, (S)-7-isopropyl-2-((1-((R)-2-methoxy-2-phenylacetyl)azetidin-3-yl)amino)-4,8-dimethyl-7,8-dihydropteridin-6(5H)-one]
1000 to 5000 nM	COc1c(F)cc(Cn2cnc(CNc3nc(C)c4c(n3)N(C)[C@@H](C(C)C)C(=O)N4)n2)cc1F [Compound 488, (S)-2-(((1-(3,5-difluoro-4-methoxybenzyl)-1H-1,2,4-triazol-3-yl)methyl)amino)-7-isopropyl-4,8-dimethyl-7,8-dihydropteridin-6(5H)-one]
1000 to 5000 nM	Cc1nc(NC2CN(C(=O)Cc3ccc(C(F)(F)F)nc3)C2)nc2c1NC(=O)[C@H](C(C)C)N2C [Compound 594, (S)-7-isopropyl-4,8-dimethyl-2-((1-(2-(6-(trifluoromethyl)pyridin-3-yl)acetyl)azetidin-3-yl)amino)-7,8-dihydropteridin-6(5H)-one]
300 to 1000 nM	CC[C@H]1C(=O)Nc2c(C)nc(N[C@@H]3CC[C@H](Nc4cnc(C(F)(F)F)cn4)C3)nc2N1C [Compound 738, (S)-7-ethyl-4,8-dimethyl-2-(((1R,3S)-3-((5-(trifluoromethyl)pyrazin-2-yl)amino)cyclopentyl)amino)-7,8-dihydropteridin-6(5H)-one]
300 to 1000 nM	Cc1nc(NC2CN(C(=O)c3csc(C(F)(F)F)n3)C2)nc2c1NC(=O)[C@H](C(C)C)N2C [Compound 613, (S)-7-isopropyl-4,8-dimethyl-2-((1-(2-(trifluoromethyl)thiazole-4-carbonyl)azetidin-3-yl)amino)-7,8-dihydropteridin-6(5H)-one]

Same assay, conditions: Homo sapiens, COLO 205, 5 h, R-isomer at C2 (corresponding to C2 S-isomer); Colo 205 TCF/LEF luciferase reporter, 5 h; read-out: TCF reporter Colo205 IC50

IC50	SMILES
< 300 nM	CC[C@@H]1C(=O)N(C)c2cnc(NCc3cnn(Cc4cc(F)c(F)c(F)c4)c3)nc2N1C(C)C [Compound I-1465]
1000 to 5000 nM	Cc1nc(N[C@H]2C[C@H](Oc3cc(F)c(F)c(F)c3)C2)nc2c1NC(=O)[C@@H](CO)N2C [Compound I-1650]
≥ 5000 nM	Cc1nc(NCc2cnn(Cc3ccc(F)nc3)c2)nc2c1NC(=O)[C@@H](C1CC1)N2C [Compound I-1641]
< 300 nM	CC[C@@H]1C(=O)N(CC)c2cnc(NCc3cnn(Cc4ccc(F)cc4)c3)nc2N1C [Compound I-987]
